2 compounds from patent US7119256B2, “Gene encoding acetolactate synthase” (priority 2000, dated 2006) can be followed below.

Assay [1] has as its system wild type (Kinmaze) culture cells. Nature of the assay: Growth of wild type rice (Kinmaze) culture cells in liquid medium with herbicide (relative wet weight). The format is cell-based, Oryza sativa var. Kinmaze. As for the experimental part:
(§1) Approximately 1.5 g (wet weight) of the resistant mutant was transplanted in 200 ml of a Erlenmeyer flask supplemented with 50 ml of a MS-2,4-D liquid medium and bispyribac-sodium at an appropriate concentration, followed by culturing at approximately 27° C. for an appropriate period. The wet weight of the callus was measured periodically. The relative amount of increase was determined based on the wet weight of the transplanted resistant mutant. In addition, the experiment was performed three times with different bispyribac-sodium concentrations, and the standard error was calculated. […] As a control, a similar experiment was conducted using the wild type (Kinmaze).
(§2) The growth rates of the wild type and the resistant mutant were measured as described above except for the use of chlorsulfuron instead of bispyribac-sodium.

For assay [2], the system named is resistant mutant culture cells. Nature of the assay: Growth of bispyribac-sodium resistant rice culture cells (resistant mutant) with herbicide (relative wet weight). Format: cell-based, Oryza sativa var. Kinmaze. As for the experimental part:
Subsequently, the resulting plurality of cell lines were cultured while elevating the concentration of bispyribac-sodium in an orderly manner. […] The bispyribac-sodium resistant culture cells (hereinafter referred to as resistant mutant) were sub-cultured on MS-2,4-D solid media supplemented with 100 μM bispyribac-sodium. Part of the sub-cultured resistant mutant was sampled, added into MS-2,4-D liquid media not supplemented with bispyribac-sodium, and then subjected to suspended cell culture at a cycle of 8 to 10 days.
as §1, §2

The test system of assay [3] is callus of a rice plant (Nippon-bare) transformed with a mutant ALS gene. Description: Bispyribac-sodium sensitivity of calli of rice transformed with the mutant ALS gene. The format is cell-based. As for the experimental part: Simultaneously with the above described potting, part of the calli which had not redifferentiated (9 calli) (FIG. 35) was sub-cultured on solid media for production of a bispyribac-sodium resistant callus used in Example 1. The solid media contained 10 μM bispyribac-sodium. Thus, 6 out of 9 calli grew normally. […] Accordingly, 6 calli grown on a solid medium containing 10 μM bispyribac-sodium were all shown to have strong bispyribac-sodium resistance.

The subject of assay [4] is callus of the wild type rice plant (Nippon-bare). Nature of the assay: Bispyribac-sodium sensitivity of callus of wild type rice plant. The format is cell-based.
The subject of assay [5] is rice plant transformed with the mutant ALS gene. Description: Foliar spray of bispyribac-sodium on transformant rice plants, growth survey. Conditions: 1 kg of a.i./ha with 0.2% surfactant K, sprayed over leaves and stems; about 40 days after spraying. Format: in vivo, rice (Nippon-bare). The text has this:
Of 80 hygromycin resistant transformant rice plants potted, those which grew normally at the leaf stage 5 were 27 plants to which the mutant ALS gene had been introduced and 46 plants to which the wild type ALS gene had been introduced. Plants containing the wild type ALS gene introduced therein tended to grow healthier than those containing the mutant ALS gene therein. At this time, 4 plants containing the mutant ALS gene introduced therein and 5 plants containing the wild type ALS gene introduced therein were appropriately selected, and 1 kg of a.i./ha bispyribac-sodium salt supplemented with 0.2% surfactant K was sprayed over the leaves and stems. In FIG. 40, the plant length A was about 90 cm.

A further assay deals with mutant ALS protein (Oryza sativa subsp. japonica, UniProt Q6K2E8, S627I/W548L). Description: Herbicide sensitivity of crude mutant ALS (W548L and S627I) expressed in E. coli, in presence of valine. The format is biochemical, rice. More on the design: the cDNA containing a full length mutant ALS gene could be obtained; made in house; host or cells: E. coli JM 105, pGEX-4T-3; crude enzyme solution. Conditions: crude enzyme from E. coli, valine added. How it is done:
(§3) Preparation and purification of ALS from E. coli were performed by the following method. First, a pellet of the transformant E. coli stored at −80° C. was suspended in ALS extraction buffer (potassium phosphate buffer (pH 7.5) containing 30% glycerol and 0.5 mM MgCl2). Specifically, 2.5 ml of the buffer was added to the pellet obtained from 50 ml of the culture solution. The suspension was subjected to ultrasonication (Heat Systems-Ultrasonics, Sonicator W-225R, micro chip, output control 8, interval of approximately 1 sec, twice (40 sec each)), and subjected to centrifugation at 15000×g, 4° C. for 20 min, thereby obtaining the supernatant as a crude enzyme solution.
Herbicide sensitivity of mutant ALS protein was examined using the crude enzyme solution obtained in Example 4. Herbicide sensitivity test was performed in the manner same as that in Example 2. In the herbicide sensitivity test, three herbicides, bispyribac-sodium, pyrithiobac-sodium, and pyriminobac were used as PC herbicides; four drugs, chlorsulfuron, bensulfuron-methyl, pyrazosulfuron-ethyl and imazosulfuron were used as sulfonylurea herbicides; and two drugs, imazaquin, and imazapyr were used as imidazolinon herbicides.
Solutions containing these herbicides at certain concentrations (bispyribac-sodium and pyrithiobac-sodium were aqueous solutions, others were acetone solutions) were added to reaction solutions before addition of the mutant ALS protein. The final concentration of acetone was 1%. In addition, since an ALS protein from the rice cDNA expressed within E. coli is insusceptible to valine (Kil et al., J. Biochem. Mol. Biol. 31 287–295, 1998), a herbicide sensitivity test was performed under conditions in which ALS activity derived from E. coli was inhibited with valine.

A further assay deals with T1, wild type ALS protein (Oryza sativa subsp. japonica, UniProt Q6K2E8).
T1 sequence (Q6K2E8 44-644): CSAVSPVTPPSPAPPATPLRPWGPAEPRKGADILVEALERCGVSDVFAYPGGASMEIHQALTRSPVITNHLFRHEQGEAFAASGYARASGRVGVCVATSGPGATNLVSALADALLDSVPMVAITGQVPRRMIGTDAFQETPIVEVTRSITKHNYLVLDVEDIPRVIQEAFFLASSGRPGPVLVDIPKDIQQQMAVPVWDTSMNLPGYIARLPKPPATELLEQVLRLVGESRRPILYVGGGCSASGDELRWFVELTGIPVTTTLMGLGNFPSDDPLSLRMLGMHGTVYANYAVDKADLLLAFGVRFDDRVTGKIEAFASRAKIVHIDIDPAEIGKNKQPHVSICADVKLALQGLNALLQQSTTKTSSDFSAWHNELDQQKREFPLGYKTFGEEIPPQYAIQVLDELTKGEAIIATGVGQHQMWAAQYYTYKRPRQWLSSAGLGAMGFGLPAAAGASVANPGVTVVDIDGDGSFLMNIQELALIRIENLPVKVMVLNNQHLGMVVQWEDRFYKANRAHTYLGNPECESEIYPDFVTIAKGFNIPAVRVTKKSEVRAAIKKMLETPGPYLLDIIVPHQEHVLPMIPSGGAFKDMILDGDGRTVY
Description: Herbicide sensitivity of crude wild type ALS expressed in E. coli, in presence of valine. The format is biochemical, rice. More on the design: one type of cDNA containing a full length ALS gene could be obtained from a cDNA library derived from the wild type; made in house; host or cells: E. coli JM 105, pGEX-2T; crude enzyme solution (sonicate supernatant). Conditions: crude enzyme from E. coli, valine added. How it is done: as §3
Herbicide sensitivity of mutant ALS protein was examined using the crude enzyme solution obtained in Example 4. Herbicide sensitivity test was performed in the manner same as that in Example 2. In the herbicide sensitivity test, three herbicides, bispyribac-sodium, pyrithiobac-sodium, and pyriminobac were used as PC herbicides; four drugs, chlorsulfuron, bensulfuron-methyl, pyrazosulfuron-ethyl and imazosulfuron were used as sulfonylurea herbicides; and two drugs, imazaquin, and imazapyr were used as imidazolinon herbicides. […]

Chain of mutant ALS protein (Q6K2E8 44-644 W548L/S627I): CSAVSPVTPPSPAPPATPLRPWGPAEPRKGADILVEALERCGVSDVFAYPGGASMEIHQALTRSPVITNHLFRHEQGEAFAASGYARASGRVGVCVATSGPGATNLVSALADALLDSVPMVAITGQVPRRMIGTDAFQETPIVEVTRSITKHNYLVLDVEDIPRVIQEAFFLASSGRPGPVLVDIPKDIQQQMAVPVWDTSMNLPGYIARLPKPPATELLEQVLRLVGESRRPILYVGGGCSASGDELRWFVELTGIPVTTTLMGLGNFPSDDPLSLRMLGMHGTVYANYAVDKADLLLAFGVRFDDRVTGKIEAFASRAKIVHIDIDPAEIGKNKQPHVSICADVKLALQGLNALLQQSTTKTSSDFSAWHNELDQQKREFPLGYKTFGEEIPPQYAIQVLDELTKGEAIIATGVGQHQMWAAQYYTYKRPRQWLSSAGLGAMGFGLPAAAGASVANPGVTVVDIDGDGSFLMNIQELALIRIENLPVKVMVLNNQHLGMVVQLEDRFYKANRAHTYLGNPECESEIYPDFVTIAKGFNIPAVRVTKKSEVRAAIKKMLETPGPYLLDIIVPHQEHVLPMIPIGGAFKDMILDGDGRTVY

On to `COc1cc(OC)nc(Oc2cccc(Oc3nc(OC)cc(OC)n3)c2C(=O)[O-])n1.[Na+]` [Bispyribac-sodium, bispyribac-sodium], for which the “growth of the wild type (relative weight on day 8)” value in assay [1] (1 nM bispyribac-sodium) is given as “not inhibited”. Moreover, in assay [1] (10 nM or more bispyribac-sodium), the “growth of the wild type (relative weight on day 8)” value is reported as “inhibited”. In addition, in assay [2] (10 μM bispyribac-sodium), the “growth of the resistant mutant (relative weight on day 8)” value is given as “almost none of the growth of the resistant mutant was affected”. Moreover, the “proliferation of resistant cell lines in the presence of herbicide” value in assay [2] (100 μM bispyribac-sodium) is reported as “can proliferate”. Besides, in assay [3] (10 μM bispyribac-sodium), the “calli that grew normally on solid medium” value is reported as 6 out of 9. Moreover, the “drug sensitivity of transformant callus in liquid culture” value in assay [3] (one of the 6 normally growing calli) is on record as “showed bispyribac-sodium resistance”. The “drug sensitivity of wild type callus” value in assay [4] is “showed bispyribac-sodium sensitivity”. In assay [5], the “growth of plant containing the mutant ALS gene after spraying” value was “grew almost normally”. For the same compound, on mutant ALS protein, the “mutant ALS activity in the presence of herbicide” value is reported as “not inhibited at all” and the “resistance of the mutant ALS protein to herbicide compared to wild type ALS protein” value was “best resistance”. The “wild type ALS activity in the presence of herbicide” value at wild type ALS protein is on record as “inhibited”.

For `COc1nc(C)nc(NC(=O)NS(=O)(=O)c2ccccc2Cl)n1` [Chlorsulfuron, chlorsulfuron], the “growth of the wild type (relative weight on day 9)” value in assay [1] (1 nM chlorsulfuron) was “inhibited”. Also, in assay [2] (1 μM chlorsulfuron), the “growth of the resistant mutant (relative weight on day 9)” value is given as “strongly inhibited”. On mutant ALS protein, the “resistance of the mutant ALS protein to herbicide compared to wild type ALS protein” value is listed as “moderate”.
